Data as given in ChEMBL document CHEMBL1201862, “PubChem BioAssay data set” (2004).
Calls of active or inactive are those of the source.

Key:
[1] = test system: SN12K1; assay: cells; type: functional; settings: Homo sapiens
[2] = test system: P388/ADR; assay: cells; type: functional; settings: Mus musculus
[3] = test system: P388; assay: cells; type: functional; settings: Mus musculus
[4] = target: Dual specificity tyrosine-phosphorylation-regulated kinase 1A (Rattus norvegicus, UniProt Q63470); type: biochemical, Homo sapiens
[5] = target: Tumor necrosis factor (Homo sapiens, UniProt P01375); assay: TNFa-triggered NF-kB activation inhibitors, SAR follow-up, cell-based, revised (AID 2337); type: functional
Chain of Tumor necrosis factor (P01375 whole entry): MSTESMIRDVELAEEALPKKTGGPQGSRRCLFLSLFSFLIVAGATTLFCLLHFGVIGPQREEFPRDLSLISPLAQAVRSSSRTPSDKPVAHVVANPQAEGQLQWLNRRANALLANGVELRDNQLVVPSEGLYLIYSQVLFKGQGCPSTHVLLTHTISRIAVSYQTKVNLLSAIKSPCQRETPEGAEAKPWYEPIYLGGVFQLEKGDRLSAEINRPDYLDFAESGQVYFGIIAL

[6] = test system: HEK293; assay: cells; settings: Homo sapiens;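 further: cells exposed to compound for 14 hours overnight before viability readout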
[7] = target: Cytochrome P450 2C9 (Homo sapiens, UniProt P11712)
Chain of Cytochrome P450 2C9 (P11712 whole entry): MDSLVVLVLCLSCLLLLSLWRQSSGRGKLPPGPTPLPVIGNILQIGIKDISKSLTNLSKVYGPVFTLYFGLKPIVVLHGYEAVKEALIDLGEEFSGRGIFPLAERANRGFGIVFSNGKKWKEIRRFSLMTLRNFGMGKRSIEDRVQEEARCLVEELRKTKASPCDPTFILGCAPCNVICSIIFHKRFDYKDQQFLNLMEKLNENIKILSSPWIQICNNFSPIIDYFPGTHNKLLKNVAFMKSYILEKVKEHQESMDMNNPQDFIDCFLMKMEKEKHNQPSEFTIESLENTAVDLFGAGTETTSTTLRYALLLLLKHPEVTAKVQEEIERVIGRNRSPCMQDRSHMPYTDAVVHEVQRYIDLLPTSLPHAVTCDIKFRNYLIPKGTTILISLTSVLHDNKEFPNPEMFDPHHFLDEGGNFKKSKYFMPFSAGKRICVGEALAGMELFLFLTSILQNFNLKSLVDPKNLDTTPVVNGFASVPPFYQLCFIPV

[8] = target: Cytochrome P450 3A4 (Homo sapiens, UniProt P08684);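 further: CYP3A4 tested as one member of a cytochrome P450 panel screen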
Chain of Cytochrome P450 3A4 (P08684 whole entry): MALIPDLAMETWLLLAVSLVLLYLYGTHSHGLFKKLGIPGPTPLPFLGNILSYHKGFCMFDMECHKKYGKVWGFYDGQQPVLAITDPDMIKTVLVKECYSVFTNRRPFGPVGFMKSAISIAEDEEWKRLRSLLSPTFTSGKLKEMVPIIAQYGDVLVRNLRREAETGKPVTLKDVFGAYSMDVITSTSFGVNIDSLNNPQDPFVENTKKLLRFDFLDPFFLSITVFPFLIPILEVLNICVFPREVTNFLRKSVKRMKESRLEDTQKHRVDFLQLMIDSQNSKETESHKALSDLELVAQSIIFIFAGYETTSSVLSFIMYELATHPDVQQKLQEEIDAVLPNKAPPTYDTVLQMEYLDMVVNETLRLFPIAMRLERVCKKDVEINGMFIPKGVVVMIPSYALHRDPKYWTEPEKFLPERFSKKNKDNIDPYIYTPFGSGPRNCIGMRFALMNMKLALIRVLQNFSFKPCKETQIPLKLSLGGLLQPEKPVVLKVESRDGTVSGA

[9] = target: T1, Cysteine protease ATG4B (Homo sapiens, UniProt Q9Y4P1); type: functional;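 further: Fluorescence-based dose-response confirmation assay measuring inhibition of ATG4B activity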
T1 sequence (Q9Y4P1 whole entry): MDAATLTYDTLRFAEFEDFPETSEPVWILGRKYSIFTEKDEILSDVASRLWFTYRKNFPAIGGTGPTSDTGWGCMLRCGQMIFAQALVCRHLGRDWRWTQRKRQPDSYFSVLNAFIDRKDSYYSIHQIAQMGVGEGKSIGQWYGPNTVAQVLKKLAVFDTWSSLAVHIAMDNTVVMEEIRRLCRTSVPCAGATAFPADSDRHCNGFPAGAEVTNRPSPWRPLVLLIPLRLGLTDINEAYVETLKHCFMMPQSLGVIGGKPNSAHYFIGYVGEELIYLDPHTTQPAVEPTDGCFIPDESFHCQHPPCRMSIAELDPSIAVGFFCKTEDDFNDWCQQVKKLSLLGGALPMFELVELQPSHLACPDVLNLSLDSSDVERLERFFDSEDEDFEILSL

[10] = target: T2, Sentrin-specific protease 8 (Homo sapiens, UniProt Q96LD8); type: functional;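 further: luminescence read-out of SENP8 inhibition, dose-response confirmation following an ultra-high-throughput screen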
T2 sequence (Q96LD8 whole entry): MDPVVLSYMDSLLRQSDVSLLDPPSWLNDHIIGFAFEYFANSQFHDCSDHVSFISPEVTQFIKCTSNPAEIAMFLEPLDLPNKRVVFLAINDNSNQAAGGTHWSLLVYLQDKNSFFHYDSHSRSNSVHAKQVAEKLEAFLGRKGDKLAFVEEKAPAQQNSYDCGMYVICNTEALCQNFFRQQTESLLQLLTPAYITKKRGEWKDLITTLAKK

[11] = target: T3, Sentrin-specific protease 6 (Homo sapiens, UniProt Q9GZR1); type: functional;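 further: Luminescence-based dose-response confirmatory assay of SENP6 inhibition, following up an ultra-high-throughput screen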
T3 sequence (Q9GZR1 whole entry): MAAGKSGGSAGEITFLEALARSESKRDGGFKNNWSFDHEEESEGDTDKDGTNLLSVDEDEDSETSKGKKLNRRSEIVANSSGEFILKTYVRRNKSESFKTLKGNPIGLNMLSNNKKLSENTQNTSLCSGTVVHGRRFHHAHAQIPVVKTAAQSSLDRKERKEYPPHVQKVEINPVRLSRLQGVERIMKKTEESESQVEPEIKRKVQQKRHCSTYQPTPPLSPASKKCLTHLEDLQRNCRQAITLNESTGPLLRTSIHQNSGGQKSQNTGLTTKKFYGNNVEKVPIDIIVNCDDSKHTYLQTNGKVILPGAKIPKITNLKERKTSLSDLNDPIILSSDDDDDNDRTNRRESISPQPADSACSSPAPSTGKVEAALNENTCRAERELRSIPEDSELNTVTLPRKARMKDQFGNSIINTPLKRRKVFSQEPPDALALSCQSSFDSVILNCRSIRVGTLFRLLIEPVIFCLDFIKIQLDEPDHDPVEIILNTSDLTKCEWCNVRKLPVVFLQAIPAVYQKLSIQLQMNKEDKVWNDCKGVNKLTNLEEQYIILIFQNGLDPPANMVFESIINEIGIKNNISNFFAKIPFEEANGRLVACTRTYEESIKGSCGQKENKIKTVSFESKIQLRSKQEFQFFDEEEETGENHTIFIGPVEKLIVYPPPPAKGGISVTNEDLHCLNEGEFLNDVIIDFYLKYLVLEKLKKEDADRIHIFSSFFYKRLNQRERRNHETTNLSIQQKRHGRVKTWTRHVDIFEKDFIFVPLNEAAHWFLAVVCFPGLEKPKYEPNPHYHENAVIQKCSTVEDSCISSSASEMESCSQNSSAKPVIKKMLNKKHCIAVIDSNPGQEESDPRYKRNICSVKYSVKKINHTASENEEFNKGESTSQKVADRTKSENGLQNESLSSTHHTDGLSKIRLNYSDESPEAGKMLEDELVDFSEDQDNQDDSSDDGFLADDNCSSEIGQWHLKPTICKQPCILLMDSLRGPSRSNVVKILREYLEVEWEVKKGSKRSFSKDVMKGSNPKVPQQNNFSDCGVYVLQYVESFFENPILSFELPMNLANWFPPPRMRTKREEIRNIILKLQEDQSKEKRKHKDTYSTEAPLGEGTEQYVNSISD

[12] = target: T4, Sentrin-specific protease 7 (Homo sapiens, UniProt Q9BQF6); type: functional;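 further: Luminescence-based dose-response confirmation of ultra-high-throughput screening hits, measuring inhibition of SENP7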
T4 sequence (Q9BQF6 whole entry): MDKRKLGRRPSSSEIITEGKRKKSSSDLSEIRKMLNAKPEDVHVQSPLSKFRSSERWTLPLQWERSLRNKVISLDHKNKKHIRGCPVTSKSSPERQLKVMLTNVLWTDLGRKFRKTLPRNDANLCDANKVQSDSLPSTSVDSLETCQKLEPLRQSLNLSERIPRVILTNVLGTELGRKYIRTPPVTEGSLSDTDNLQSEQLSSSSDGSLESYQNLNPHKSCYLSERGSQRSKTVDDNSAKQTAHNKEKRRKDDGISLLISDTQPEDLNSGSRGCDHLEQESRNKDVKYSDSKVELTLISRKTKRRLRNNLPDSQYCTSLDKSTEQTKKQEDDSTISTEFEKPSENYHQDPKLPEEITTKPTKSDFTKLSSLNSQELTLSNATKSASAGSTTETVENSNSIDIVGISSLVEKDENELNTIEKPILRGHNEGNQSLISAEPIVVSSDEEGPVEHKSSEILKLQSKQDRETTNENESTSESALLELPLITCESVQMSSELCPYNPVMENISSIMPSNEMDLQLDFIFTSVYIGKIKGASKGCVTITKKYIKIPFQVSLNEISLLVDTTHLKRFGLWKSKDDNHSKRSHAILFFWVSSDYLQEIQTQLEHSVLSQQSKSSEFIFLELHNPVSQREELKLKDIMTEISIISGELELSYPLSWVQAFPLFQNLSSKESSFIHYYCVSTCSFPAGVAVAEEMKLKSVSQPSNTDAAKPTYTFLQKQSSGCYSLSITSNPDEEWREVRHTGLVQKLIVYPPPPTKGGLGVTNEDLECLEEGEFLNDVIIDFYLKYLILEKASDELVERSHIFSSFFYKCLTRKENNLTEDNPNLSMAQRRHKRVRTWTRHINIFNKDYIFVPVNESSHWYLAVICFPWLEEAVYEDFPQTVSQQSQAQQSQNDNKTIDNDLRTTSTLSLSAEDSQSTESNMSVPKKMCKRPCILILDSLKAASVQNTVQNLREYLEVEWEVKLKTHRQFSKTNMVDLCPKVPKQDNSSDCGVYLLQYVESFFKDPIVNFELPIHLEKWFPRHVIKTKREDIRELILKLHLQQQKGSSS

[13] = target: T5, Caspase-3 (Homo sapiens, UniProt P42574); type: functional;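 further: Dose-response selectivity test against caspase-3 for candidate inhibitors of sentrin-specific proteases (SENPs)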
T5 sequence (P42574 whole entry): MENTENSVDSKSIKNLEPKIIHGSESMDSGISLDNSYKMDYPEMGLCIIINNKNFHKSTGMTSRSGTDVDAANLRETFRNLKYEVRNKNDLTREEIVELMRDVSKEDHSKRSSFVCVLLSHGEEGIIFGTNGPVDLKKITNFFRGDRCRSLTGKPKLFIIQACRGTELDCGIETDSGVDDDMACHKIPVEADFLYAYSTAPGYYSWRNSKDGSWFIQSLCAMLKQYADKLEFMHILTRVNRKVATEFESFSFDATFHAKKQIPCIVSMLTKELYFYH

[14] = target: Phospholipase A2 (Homo sapiens, UniProt P04054); type: functional;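 further: confirmatory dose-response counterscreen on phospholipase A2, testing hits that came from an ultra-high-throughput screen for ATG4B inhibitors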
Chain of Phospholipase A2 (P04054 whole entry): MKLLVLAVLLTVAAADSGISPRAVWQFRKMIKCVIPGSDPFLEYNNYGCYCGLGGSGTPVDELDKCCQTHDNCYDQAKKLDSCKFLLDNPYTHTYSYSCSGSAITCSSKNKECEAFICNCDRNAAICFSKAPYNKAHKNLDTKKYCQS

[15] = target: T6, Cytochrome P450 1A2 (Homo sapiens, UniProt P05177);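 further: PubChem cytochrome P450 panel assay, CYP1A2 panel member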
T6 sequence (P05177 whole entry): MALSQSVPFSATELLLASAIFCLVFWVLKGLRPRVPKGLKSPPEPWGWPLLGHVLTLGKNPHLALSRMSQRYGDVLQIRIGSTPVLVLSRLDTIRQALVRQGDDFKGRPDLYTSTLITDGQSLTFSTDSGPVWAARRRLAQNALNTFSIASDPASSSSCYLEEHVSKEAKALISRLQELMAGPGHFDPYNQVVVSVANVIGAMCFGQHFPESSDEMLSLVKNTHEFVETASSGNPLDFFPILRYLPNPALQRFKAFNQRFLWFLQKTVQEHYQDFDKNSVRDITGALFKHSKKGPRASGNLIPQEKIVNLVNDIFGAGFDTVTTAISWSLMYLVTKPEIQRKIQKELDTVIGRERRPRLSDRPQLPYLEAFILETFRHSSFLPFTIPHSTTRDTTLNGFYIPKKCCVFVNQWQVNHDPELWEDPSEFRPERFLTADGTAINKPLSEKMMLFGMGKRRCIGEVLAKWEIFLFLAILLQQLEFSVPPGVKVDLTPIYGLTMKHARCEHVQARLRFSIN

[16] = target: Heat shock protein HSP 90-alpha (Homo sapiens, UniProt P07900); type: functional, organism-based
[17] = target: T7, Coagulation factor XII (Homo sapiens, UniProt P00748); type: functional;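 further: activated factor XIIa alpha cleaving a fluorogenic AMC peptide substrate; inhibitor potency from loss of enzyme activity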
T7 sequence (P00748 whole entry): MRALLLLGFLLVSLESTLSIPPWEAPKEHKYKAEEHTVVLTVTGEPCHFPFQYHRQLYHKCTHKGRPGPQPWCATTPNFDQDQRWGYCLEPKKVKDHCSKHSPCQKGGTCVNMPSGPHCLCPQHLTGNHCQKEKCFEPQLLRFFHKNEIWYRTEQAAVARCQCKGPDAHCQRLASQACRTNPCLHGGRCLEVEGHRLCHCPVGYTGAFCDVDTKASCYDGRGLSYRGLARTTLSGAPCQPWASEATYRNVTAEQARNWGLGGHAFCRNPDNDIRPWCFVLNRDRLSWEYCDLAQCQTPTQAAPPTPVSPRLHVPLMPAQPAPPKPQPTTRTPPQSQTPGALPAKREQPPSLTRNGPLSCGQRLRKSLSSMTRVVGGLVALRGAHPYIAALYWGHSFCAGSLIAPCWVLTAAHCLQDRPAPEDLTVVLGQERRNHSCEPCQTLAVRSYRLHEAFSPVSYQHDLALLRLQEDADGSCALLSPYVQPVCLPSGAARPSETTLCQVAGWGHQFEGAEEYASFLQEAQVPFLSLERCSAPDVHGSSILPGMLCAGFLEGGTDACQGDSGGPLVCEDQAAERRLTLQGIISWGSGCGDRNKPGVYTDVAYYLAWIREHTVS

[18] = target: T8, Calpain-2 catalytic subunit (Sus scrofa, UniProt P43367); assay: pig calpain II inhibitor potency, dose response, biochemical, fluorogenic peptide substrate (AID 1420); type: functional
T8 sequence (P43367 whole entry): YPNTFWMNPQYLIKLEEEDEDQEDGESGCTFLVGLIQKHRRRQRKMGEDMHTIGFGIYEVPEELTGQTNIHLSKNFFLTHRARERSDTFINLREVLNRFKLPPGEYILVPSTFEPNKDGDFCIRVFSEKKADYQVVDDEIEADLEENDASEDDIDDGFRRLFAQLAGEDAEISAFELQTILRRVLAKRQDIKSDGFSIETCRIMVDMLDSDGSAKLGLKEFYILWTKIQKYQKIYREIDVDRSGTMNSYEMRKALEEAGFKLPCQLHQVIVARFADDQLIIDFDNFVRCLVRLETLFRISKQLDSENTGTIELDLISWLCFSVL

[19] = Luminescence Cell-Based Dose Retest to Confirm Inhibitors of Cancer Stem Cells. [Related pubchem assays (depositor defined):AID2717, AID2721]; type: functional; settings: Homo sapiens

In the case of `CCOC(=O)/C(O)=C1\C(=O)N(C)C(=O)C1c1cccc(OC)c1` (centres undefined), the GI50 [1] is reported as > 100 µM (inactive), the GI50 [2] is reported as > 100 µM (inactive) and the GI50 [3] is reported as > 100 µM (inactive).

For `COc1ccc(/C=C/C(=O)Nc2cccc(C(C)=O)c2)cc1`, the AC50 [4] was 3.68 µM (active).

For `CN(C)c1ccc(NC(=O)c2ccc(CN3CCc4ccccc43)cc2)cc1`, the IC50 [5] was 5.37 µM (active) and the IC50 [6] was > 20 µM (inactive).

With `COc1cc2c(cc1OC)C(Cl)C(c1ccc(Br)cc1)=C2Cl` (centres undefined) the GI50 [1] was 15.6 µM (inactive), the GI50 [2] was 3.78 µM (inactive) and the GI50 [3] was 3.94 µM (inactive).

In the case of `COc1ccc2c(c1)CN([C@H](C)[C@@H]1CC[C@@H]3[C@H]4CC[C@H]5C[C@@H](O)CC[C@@]5(C)[C@H]4CC[C@]31C)CO2`, the AC50 [7] is reported as 7.94 µM (inconclusive) and the AC50 [8] is reported as “inconclusive”.

In the case of `Cc1ccc(-c2nnc(SCc3ccccc3F)o2)cc1`, the IC50 [9] is reported as 14.5 µM (active), the IC50 [10] is reported as 21.4 µM (active) and the IC50 [11] is reported as 14.6 µM (active). The IC50 [12] was 5.03 µM (active), the IC50 [13] was 17.7 µM (active) and the IC50 [14] was 7.21 µM (active).

In the case of `Cc1cccc(NC(=O)C2(c3ccccc3)CC2(Cl)Cl)c1` (centres undefined), the AC50 [8] is reported as “inconclusive”.

In the case of `COc1ccc(-c2nc3cnc(N4CCN(C)CC4)nc3n(Cc3ccc(F)cc3)c2=O)cc1`, the AC50 [8] is reported as “inconclusive” and the AC50 [15] is reported as 10 µM (inconclusive).

For `Cc1c(C(=O)N(Cc2ccccc2)Cc2cccs2)cnn1-c1ccc(Cl)cc1`, the AC50 [16] was 3.44 µM (active), the IC50 [17] was > 50 µM (inactive) and the IC50 [18] was 4.66 µM (not active). For the same compound, the AC50 [19] was 1.77 µM (active).

In the case of `O=S(=O)(O)c1cc(/N=[N+](\[O-])c2ccc(/N=N/c3ccccc3)cc2S(=O)(=O)O)ccc1/C=C/c1ccc(/N=[N+](\[O-])c2ccc(/N=N/c3ccccc3)cc2S(=O)(=O)O)cc1S(=O)(=O)O`, the GI50 [1] is reported as > 31.6 µM (inactive) and the GI50 [3] is reported as > 100 µM (inactive).

With `CCN(CC)CCNC(=O)C1COc2ccc(-c3cc(=O)c4ccccc4o3)cc2O1` (centres undefined) the GI50 [1] was 16.8 µM (inactive), the GI50 [2] was 12.3 µM (inactive) and the GI50 [3] was 0.29 µM (active).
